US8097656B2, “Nitrogenated trans-stilbene analogs, method for the obtention and medical applications thereof” (Dominion Pharmakine S.L, priority 2005, dated 2012)

Key:
MB16 cells [1] = experiment: In vitro proliferation of MB16 cells in response to murine HSC soluble factors; type: cell-based; conditions: for Increase in proliferation of B16 cells by MC-CEH (in words): 2.5 μM for 30 minutes before MC-CEH, 48 hours; for Proliferation of MB16 cells in response to murine HSC soluble factors (No. cells per well): 2.5 μM, 30 min before HSC-conditioned media, 48 h, control 16300 ± 300, treatment alone 21660 ± 500
Protocol: (§1) Culture of B16 (MB16) and A375 (MA375) melanoma cells. The MB 16 (B16F10 subline) murine tumor cells were cultured at 37° C., with 5% CO2 atmosphere in Dulbecco's modified Eagle's medium (DMEM)-HCO3 penicillin (100 U/ml), streptomycin (100 μg/ml), supplemented with 5% fetal bovine serum and adjusted to pH 7.4. The cells were maintained and subcultured according to the method described by Vidal-Vanaclocha et al. (1994) [Vidal-Vanaclocha, F., Amézaga, C., Asumendi, A., Kaplanski, G. & Dinarello, C. A. Interleukin-1 receptor blockade reduces the number and size of murine B16 melanoma hepatic metastases. Cancer Research, 1994, 54, 2667-2672]. The conditioned media were obtained from subconfluyent cultures maintained in absence of FBS for 24 hours.
(§2) In vitro Melanoma cell proliferation test. The MB16 or MA375 cells are seeded (2500 cells/well/200 μl) in DMEM medium (Dulbecco's modified Eagle's medium) with 10% fetal bovine serum (FBS). Once adhered, they were washed to remove the FBS and fresh medium was added in the presence or absence of 2.5 μM of the compounds to be tested. In the experiments with MA375, the compound azaresveratrol (see Table 4) was used, and in the experiments with MB16 cells, the compounds azaresveratrol, JE1:2, JE2:1 or JE2:2 (see FIG. 3) were used. Thirty (30) minutes later, 10 ng/ml of IL-18 or HSC-conditioned media (murines in the case of B16 and human ones in the case of A375) were added to some wells, and the plates were incubated for 48 hours at 37° C. with 5% CO2 Upon completion of the incubation period, the cells were fixed with […] for 1 hours, were washed and were allowed to dry in the incubator at 50° C. for 30 minutes. In following, 100 μl/well of sulforhodamine 101 (0.4% p/v) was added and they were incubated at room temperature in the dark for 30 minutes. After washing, 200 μl/well of Tris base 10 mM pH 10.5 was added and the fluorescence was measured by means of a 530 nm, 620 nm emission excitation filter plate fluorescence reader. The number of cells was calculated by extrapolating said fluorescence data on a standard straight line previously obtained based on the fluorescence emitted in an increasing number of cells.

MA375 cells = experiment: In vitro proliferation of MA375 cells in response to human HSC soluble factors; type: cell-based; conditions: for Increase in proliferation of A375 cells by MC-CEH (in words): 2.5 μM for 30 minutes before MC-CEH, 48 hours; for Proliferation of MA375 cells in response to human HSC soluble factors (No. cells per well): 2.5 μM, 30 min before HSC-conditioned media, 48 h, control 9000 ± 60, treatment alone 17500 ± 50
Protocol: as §1, §2

MB16 cells [2] = experiment: Adhesion of IL-18-treated MB16 cells to HSE cell monolayer; type: cell-based, murine; conditions: for Adhesion of MB16 cells treated with IL-18 to HSE cells (% adhered cells): 2.5 μM for 30 min prior to IL-18, control 24.4 ± 4, IL-18 alone 54 ± 6.0; for Increase of the percentage of adhesion of tumor cells to the HSE in response to IL-18 (in words): 2.5 μM for 30 minutes prior to IL-18
Source text: Isolation of primary murine cultures of hepatic sinusoidal endothelial (HSE) cells. The hepatic sinusoidal cells were isolated from C57BL/6J mice (males, aged 6-8 weeks) supplied by IFFA Credo (L'Arbreole, France), followed by a purification and identification of the HSE cells following the protocol described by Vidal-Vanaclocha et al. (1993) [Vidal-Vanaclocha, F., Rocha, M., Asumendi, A. & Barbera-Guillem, E. Isolation and enrichment of two sublobular compartment-specific endothelial cell subpopulations from liver sinusoids. Hepatology, 1993, 18, 328-339]. Stable primary cultures of HSE cells were obtained after seeding the cells on a type I collagen substrate (Sigma Chemicals Co, St Louis, Mo.), and the cultures were maintained in DMEM-HCO^3−, penicillin (100 U/ml), streptomycin (100 μg/ml), supplemented with 10% fetal bovine serum at 37° C. with 5% CO2 in atmosphere at 98% humidity.
MB16 cell adhesion to the monolayer of HSE cells in culture. The endothelial cells were isolated 24 hours prior to the adhesion test and were seeded on 24-well plate, maintaining them a minimum of 4 hours in serum-free medium before incubating them with DMEM in the presence or not of MC-MB16 for 8 hours. The synthesized compounds (JE2:2 see FIG. 6; JEM2:2-01 and JEM2:1-02 see FIG. 8A; YEF02, YEF03, YEF07, YEF05B, YEF07B and YEF05H see FIG. 10) were added to a 2.5 μM concentration prior to the MC-MB16. On the other hand, the MB16 cells were marked with 40 μg/ml from the fluorescent probe BCECF-AM (carboxyfluorescein, 2′,7′-bis-(2-carboxy-ethyl)-5-(6)carboxyfluorescein aminoxymethyl ester) supplied by Molecular Probes Inc. (Oregon, USA). Afterward, a washing process was performed with DMEM-HCO3−—to remove the excess fluorochromium, the number of viable cells being calculated by means of the trypan blue exclusion test and resuspended to a concentration of 2×10^5 cells/ml. Lastly, 1 ml of the MB16 cell suspension was added to each well on the primary HSE cell culture plate. The co-culture plates were incubator-incubated at 37° C. for 8 minutes. The percentage of cellular adhesion was calculated by means of the a fluorescence measurement system described by Vidal-Vanaclocha et al. (1994) [Vidal-Vanaclocha, F., Amézaga, C., Asumendi, A., Kaplanski, G. & Dinarello, C. A. Interleukin-1 receptor blockade reduces the number and size of murine B16 melanoma hepatic metastases. Cancer Research, 1994, 54, 2667-2672]. In the experiments with IL-18, the MB16 cells were incubated with 10 ng/ml of IL-18 for 4 hours prior to being marked with BCECF-AM and were adhered to the HSE cell plate. The results in the figures are given as values related to the adhesion percentages of the untreated HSE cells.

human HSC = experiment: Migration of human HSCs treated with MC-MA375 (modified Boyden chamber); type: cell-based; conditions: for Increase in migration of HSC induced by MC-A375 (in words): 12.5 μM 30 min prior to MC-A375; for Migration of human HSC's treated with MC-MA375 (No. cells migrated per field): 12.5 μM, 30 min before MC-MA375, 4 h, control 10.0 ± 4, treatment alone 91.5 ± 19
Source text: isolation of primary human cultures of hepatic sinusoidal endothelial (HSE) hepatic stellate cells (HSCs). The primary cultures of human HSE and HSC cells were obtained by non-tumoral hepatic tissue serial profusion with collagenase and pronase solutions, followed by Nycodenz gradient and seeded on 24-well plates (0.5×10^4 cells/cm^2) in DMEM. supplemented with 10% FBS.
Human HSC and HSE cell migration tests (see Table 3). Primary cultured hepatic endothelial cells (25×10^5) or hepatic stellate cells (2×10^4) were seeded in the upper compartment of modified Boyden chambers equipped with a polycarbonate filter of an 8 μm pore size. Some cells were incubated in the presence or absence of 12.5 μM of azaresveratrol, 30 minutes prior to adding conditioned tumor medium. Twenty-four (24) hours later (in the case of the endothelial cells) or 4 hours later (in the case of hepatic star cells) the number of cells having passed through the membrane was determined. The cells were fixed, were stained with hematoxylin eosine and were counted under the microscope (20×) in 5 fields per well.

Oc1ccc(/N=C/c2cc(O)cc(O)c2)cc1 [azaresveratrol, 5-((E)-(4-Hydroxyphenylimino)methyl)benzene-1,3-diol]
Increase in proliferation of B16 cells by MC-CEH (in words) (MB16 cells [1]): prevented | Proliferation of MB16 cells in response to murine HSC soluble factors (No. cells per well) (MB16 cells [1]): 16750 ± 135 No. cells per well | Increase in proliferation of A375 cells by MC-CEH (in words) (MA375 cells): prevented | Proliferation of MA375 cells in response to human HSC soluble factors (No. cells per well) (MA375 cells): 9250 ± 65 No. cells per well | Adhesion of MB16 cells treated with IL-18 to HSE cells (% adhered cells) (MB16 cells [2]): 31 ± 4.0 % adhered cells | Increase of the percentage of adhesion of tumor cells to the HSE in response to IL-18 (in words) (MB16 cells [2]): significantly (P<0.01) inhibited | Increase in migration of HSC induced by MC-A375 (in words) (human HSC): abolished | Migration of human HSC's treated with MC-MA375 (No. cells migrated per field) (human HSC): 6.0 ± 1.3 No. cells migrated per field

Oc1ccc(C=Cc2cc(O)cc(O)c2)cc1 [resveratrol, reference compound]
Increase in proliferation of B16 cells by MC-CEH (in words) (MB16 cells [1]): prevented | Proliferation of MB16 cells in response to murine HSC soluble factors (No. cells per well) (MB16 cells [1]): 16800 ± 250 No. cells per well | Increase in proliferation of A375 cells by MC-CEH (in words) (MA375 cells): prevented | Proliferation of MA375 cells in response to human HSC soluble factors (No. cells per well) (MA375 cells): 9050 ± 100 No. cells per well | Adhesion of MB16 cells treated with IL-18 to HSE cells (% adhered cells) (MB16 cells [2]): 30 ± 4.0 % adhered cells | Increase of the percentage of adhesion of tumor cells to the HSE in response to IL-18 (in words) (MB16 cells [2]): significantly (P<0.01) inhibited | Increase in migration of HSC induced by MC-A375 (in words) (human HSC): abolished | Migration of human HSC's treated with MC-MA375 (No. cells migrated per field) (human HSC): 6.5 ± 1.4 No. cells migrated per field
